Laboratory results: ChEMBL document CHEMBL5390217, “Structure Confirmation of Dechlorotrichotoxin A through Stereoselective Total Synthesis” (2023)
The source made the active and inactive calls. The rule behind the calls is not given here.

What was measured:
U-937 = experiment: Antiproliferative activity against human U-937 cells assessed as inhibition of cell growth at 30 uM incubated for 48 hrs in presence of 10% FBS by CCK-8 assay relative to control; assay type: functional; parameters: scale not given: the % may be the effect or the level left
MCF7 [1] = experiment: Antiproliferative activity against human MCF7 cells assessed as inhibition of cell growth at 30 uM incubated for 48 hrs in presence of 10% FBS by CCK-8 assay relative to control; assay type: functional; parameters: scale not given: the % may be the effect or the level left
MCF7 [2] = experiment: Antiproliferative activity against human MCF7 cells assessed as inhibition of cell growth at 30 uM incubated for 48 hrs in presence of 10% FBS by CCK-8 assay; assay type: functional, cell-based

## C=CC[C@@H](O)/C(C)=C/[C@@H](C)CCC(=C)Cc1ccccc1
U-937
  Activity: 44%
MCF7 [1]
  Activity: 21%

## C=CC[C@@H](O)/C(C)=C/[C@@H](C)CCC(=CCl)Cc1ccccc1 (mixture of isomers)
MCF7 [2]
  Activity: inactive
U-937
  Activity: 20%
